# Measured values: patent publication US7507734B2, “Pyridazinone derivatives” (Aventis Pharma S.A., priority 2004, dated 2009)
# Target: CDK2/Cyclin E kinase (Homo sapiens, UniProt P24941)
# Assay: CDK2/Cyclin E Flashplate Assay: 96-well format
# Format: biochemical
# Settings: streptavidin-coated flashplate, biotinylated-Rb peptide substrate 10 μM, 33PγATP/ATP 1 μM, CDK2/Cyclin E 20 nM, 30 minute at 30° C., 1% DMSO
# Description: Functional Measurements for Determination of IC50-Values
# CDK2/Cyclin E Flashplate Assay: 96-Well Format
# A 96-well streptavidin-coated flashplate is used to assay potency of compounds according formula (I) against CDK2/Cyclin E kinase. To carry out the assay, biotinylated-Rb peptide substrate (Biotin-[…]-OH) is solubilized at 1 mM in kinase buffer (Hepes 50 mM, NaCI 1 mM, MgCI2 5mM pH 7.5) as a stock solution conserved at −20° C. in aliquots of 110 μl. The day of the experiment, an aliquot of this solution is thawed and diluted to 14.3 μM in kinase buffer, containing 1 mM dithithreitol (DTT) added in the buffer extemporarily.
# 70 μl of this solution is added in each well of the flashplate in order to achieve a final concentration of 10 μM (100 μl reactionnal volume). Serial dilutions of inhibitors are prepared in DMSO from 10 mM stock solutions in order to achieve 1000 μM, 333.3 μM, 111.1 μM, 37.03 μM, 12.35 μM, 4.11 μM and 1.37 μM and all rediluted in kinase buffer+DTT in order to achieve 100 μM, 33.3 μM, 11.1 μM, 3.7 μM, 1.24 μM, 0.41 μM and 0.14 μM in DMSO 10% buffer (vol/vol). 10 μl of each of these solutions (or 10 μl of buffer+DTT for controls) are transferred to the testplate wells in order to achieve 10 μM, 3.33 μM, 1.11 μM, 0.37 μM, 0.12 μM, 0.04 μM and 0.01 μM as final concentrations, 1% DMSO (vol/vol). In each well, 10 μl of a solution of a mix of ^33PγATP/ATP are added in order to achieve 1 μM final concentration and a total of 1 μCi. The kinase reaction is initiated by addition of 10 μl of a solution at 200 nM of CDK2/Cyclin E in kinase buffer+DTT (or buffer+DTT for blanks) in order to achieve 20 nM final concentration. After addition of each reagent, the test-plate is shaken. The plates are incubated 30 minute at 30° C. with a shaking at 650 rpm. At the end of the incubation, the plates are washed 3 times with 300 μl of PBS (without calcium and magnesium) per well. The incorporation of ^33P to the peptide is measured by scintillation counting.
row,Structure (SMILES),IC50 [nM]
1,"O=c1[nH]nc(-c2ccc(O)cc2)cc1-c1cc2ccccc2[nH]1 [Example 2, 6-(4-Hydroxy-phenyl)-4-(1H-indol-2-yl)-2H-pyridazin-3-one]",33
2,"O=c1[nH]nc(-c2ccncc2)cc1-c1cc2ccc(OCc3ccccc3)cc2[nH]1 [Example 23, 4-(6-Benzyloxy-1H-indol-2-yl)-6-pyridin-4-yl-2H-pyridazin-3-one]",48
3,"CN(C)CCCOc1ccc2[nH]c(-c3cc(-c4ccncc4)n[nH]c3=O)cc2c1 [Example 30, 4-[5-(3-Dimethylamino-propoxy)-1H-indol-2-yl]-6-pyridin-4-yl-2H-pyridazin-3-one]",35

# These reach a lower IC50. Values come first.
row,IC50 [nM],Structure (SMILES)
1,26,"Cc1ccc2[nH]c(-c3cc(-c4ccncc4)n[nH]c3=O)cc2c1 [Example 14, 4-(5-Methyl-1H-indol-2-yl)-6-pyridin-4-yl-2H-pyridazin-3-one]"
2,20,"CCN(CC)CCOc1ccc2cc(-c3cc(-c4ccncc4)n[nH]c3=O)[nH]c2c1 [Example 20, 4-[6-(2-Diethylamino-ethoxy)-1H-indol-2-yl]-6-pyridin-4-yl-2H-pyridazin-3-one]"
